Patent publication US7767659B2, “Synthesis of naturally occurring ecteinascidins and related compounds” (Pharma Mar, S.A., priority 2002, dated 2010)
Like-named read-outs stand apart in the source and are kept apart here.

Columns and labels:
[1] = system: LoVo; experiment: cells; conditions: for GI50: read-out: GI50 LOVO; for CC50: read-out: LC50 LOVO
How it was run: (§1)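 Colorimetric SRB read (490 nm) on triplicate wells after 48 h at 37 °C, 5% CO2. Dose range 10 to 10^−8 μg/ml; 5×10^3 cells/well pre-attached 18 h.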

[2] = system: A-549; experiment: cells; conditions: for GI50: read-out: GI50 A549; for CC50: read-out: LC50 A549
How it was run: as §1

[3] = system: HT-29; experiment: cells; conditions: for GI50: read-out: GI50 HT29; for CC50: read-out: LC50 HT29
How it was run: as §1

[4] = system: SK-MEL-28; experiment: Inhibition of cells growth by colorimetric assay (SRB); conditions: for GI50: read-out: GI50 MEL-28; for CC50: read-out: LC50 MEL-28
How it was run: as §1

[5] = system: PANC-1; experiment: as above; conditions: for GI50: read-out: GI50 PANC-1; for CC50: read-out: LC50 PANC-1
How it was run: as §1

[6] = system: K-562; experiment: as above; conditions: for GI50: read-out: GI50 K562; for CC50: read-out: LC50 K562
How it was run: as §1

[7] = system: IGROV-1; experiment: as above; conditions: for GI50: read-out: GI50 IGROV; for CC50: read-out: LC50 IGROV
How it was run: as §1

[8] = system: DU-145; experiment: as above; conditions: for GI50: read-out: GI50 DU145; for CC50: read-out: LC50 DU145
How it was run: as §1

[9] = system: IGROV-ET; experiment: as above; conditions: for GI50: read-out: GI50 IGROV-ET; for CC50: read-out: LC50 IGROV-ET
How it was run: as §1

[10] = system: HeLa-APL; experiment: as above; conditions: for GI50: read-out: GI50 HELA-APL; for CC50: read-out: LC50 HELA-APL
How it was run: as §1

[11] = system: LoVo-Dox; experiment: as above; conditions: for GI50: read-out: GI50 LOVO-DOX; for CC50: read-out: LC50 LOVO-DOX
How it was run: as §1

[12] = system: SK-BR-3; experiment: as above; conditions: for GI50: read-out: GI50 SK-BR3; for CC50: read-out: LC50 SK-BR3
How it was run: as §1

[13] = system: HeLa; experiment: as above; conditions: for GI50: read-out: GI50 HELA; for CC50: read-out: LC50 HELA
How it was run: as §1

[14] = system: LNCaP; experiment: as above; conditions: for GI50: read-out: GI50 LNCAP; for CC50: read-out: LC50 LNCAP
How it was run: as §1

[15] = IGROV-ET, SRB, 48 hours exposure
[16] = HELA-APL, SRB, 48 hours exposure
[17] = LOVO-DOX, SRB, 48 hours exposure

With `C=CCN1C2Cc3cc(C)c(OC)c(O)c3C1C1C3SCC(NC(C)=O)C(=O)OCC(c4c5c(c(C)c(OC(C)=O)c43)OCO5)N1C2C#N` (stereo not drawn) [compound 24] the “TGI LOVO” value ([1]; LOVO, SRB, 48 hours exposure) was 8.21E−08 Molar, the GI50 ([1]; LOVO, SRB, 48 hours exposure) was 26.1 nM and the CC50 ([1]; LOVO, SRB, 48 hours exposure) was 14500 nM. The “TGI A549” value ([2]; A549, SRB, 48 hours exposure) was 4.62E−08 Molar, the GI50 ([2]; A549, SRB, 48 hours exposure) was 21.9 nM and the CC50 ([2]; A549, SRB, 48 hours exposure) was 97.4 nM. For the same molecule, the “TGI HT29” value ([3]; HT29, SRB, 48 hours exposure) was 1.39E−08 Molar, the GI50 ([3]; HT29, SRB, 48 hours exposure) was 5.17 nM and the CC50 ([3]; HT29, SRB, 48 hours exposure) was 14500 nM. For the same molecule, the “TGI MEL-28” value ([4]; MEL-28, SRB, 48 hours exposure) was 4.27E−08 Molar, the GI50 ([4]; MEL-28, SRB, 48 hours exposure) was 20.1 nM and the CC50 ([4]; MEL-28, SRB, 48 hours exposure) was 90.9 nM. For the same molecule, the “TGI PANC-1” value ([5]; PANC-1, SRB, 48 hours exposure) was 9.19E−08 Molar, the GI50 ([5]; PANC-1, SRB, 48 hours exposure) was 30.1 nM and the CC50 ([5]; PANC-1, SRB, 48 hours exposure) was 14500 nM. The “TGI K562” value ([6]; K562, SRB, 48 hours exposure) was 1.71E−08 Molar, the GI50 ([6]; K562, SRB, 48 hours exposure) was 4.07 nM and the CC50 ([6]; K562, SRB, 48 hours exposure) was 93.8 nM. The “TGI IGROV” value ([7]; IGROV, SRB, 48 hours exposure) was 3.18E−08 Molar, the GI50 ([7]; IGROV, SRB, 48 hours exposure) was 8.21 nM and the CC50 ([7]; IGROV, SRB, 48 hours exposure) was 110 nM. For the same molecule, the “TGI DU145” value ([8]; DU145, SRB, 48 hours exposure) was 5.23E−08 Molar, the GI50 ([8]; DU145, SRB, 48 hours exposure) was 27.8 nM and the CC50 ([8]; DU145, SRB, 48 hours exposure) was 125 nM. The “TGI IGROV-ET” value [9, 15] was 6.20E−08 Molar, the GI50 [9, 15] was 29.5 nM and the CC50 [9, 15] was 130 nM. The “TGI HELA-APL” value [10, 16] was 4.65E−08 Molar, the GI50 [10, 16] was 20.3 nM and the CC50 [10, 16] was 107 nM. The “TGI LOVO-DOX” value [11, 17] was 1.74E−06 Molar, the GI50 [11, 17] was 115 nM and the CC50 [11, 17] was 14500 nM. For the same molecule, the “TGI SK-BR3” value ([12]; SK-BR3, SRB, 48 hours exposure) was 6.38E−08 Molar, the GI50 ([12]; SK-BR3, SRB, 48 hours exposure) was 24.8 nM and the CC50 ([12]; SK-BR3, SRB, 48 hours exposure) was 269 nM. The “TGI HELA” value ([13]; HELA, SRB, 48 hours exposure) was 4.76E−08 Molar, the GI50 ([13]; HELA, SRB, 48 hours exposure) was 20.3 nM and the CC50 ([13]; HELA, SRB, 48 hours exposure) was 112 nM. For the same molecule, the “TGI LNCAP” value ([14]; LNCAP, SRB, 48 hours exposure) was 2.53E−08 Molar, the GI50 ([14]; LNCAP, SRB, 48 hours exposure) was 8.4 nM and the CC50 ([14]; LNCAP, SRB, 48 hours exposure) was 64.4 nM.
`C=CCN1[C@@H]2c3c(cc(C)c(OC)c3O)C[C@H]1[C@H](C#N)N1C2[C@@H]2SCC(NC(=O)C(F)(F)F)C(=O)OC[C@H]1c1c3c(c(C)c(OC(C)=O)c12)OCO3` (stereo partly drawn) [compound 25] showed a GI50 ([1]; Homo sapiens, LoVo, 48 h) of 938 nM, a CC50 ([1]; Homo sapiens, LoVo, 48 h) of 9270 nM and an IC (TGI) ([1]; Homo sapiens, LoVo, 48 h, read-out: TGI LOVO) of 3160 nM. For the same molecule, the GI50 ([2]; Homo sapiens, A549, 48 h) was 927 nM, the CC50 ([2]; Homo sapiens, A549, 48 h) was 11500 nM and the IC (TGI) ([2]; Homo sapiens, A549, 48 h, read-out: TGI A549) was 3450 nM. It also gave a GI50 ([3]; Homo sapiens, HT-29, 48 h) of 1640 nM, a CC50 ([3]; Homo sapiens, HT-29, 48 h) of 13900 nM and an IC (TGI) ([3]; Homo sapiens, HT-29, 48 h, read-out: TGI HT29) of 8570 nM. The GI50 ([4]; Homo sapiens, SK-MEL-28, 48 h) was 632 nM, the CC50 ([4]; Homo sapiens, SK-MEL-28, 48 h) was 5650 nM and the IC (TGI) ([4]; Homo sapiens, SK-MEL-28, 48 h, read-out: TGI MEL-28) was 1770 nM. It also gave a GI50 ([5]; Homo sapiens, PANC-1, 48 h) of 1370 nM, a CC50 ([5]; Homo sapiens, PANC-1, 48 h) of 11000 nM and an IC (TGI) ([5]; Homo sapiens, PANC-1, 48 h, read-out: TGI PANC-1) of 3900 nM. For the same molecule, the GI50 ([6]; Homo sapiens, K562, 48 h) was 316 nM, the CC50 ([6]; Homo sapiens, K562, 48 h) was 3780 nM and the IC (TGI) ([6]; Homo sapiens, K562, 48 h, read-out: TGI K562) was 775 nM. It also gave a GI50 ([7]; Homo sapiens, IGROV-1, 48 h) of 660 nM, a CC50 ([7]; Homo sapiens, IGROV-1, 48 h) of 8010 nM and an IC (TGI) ([7]; Homo sapiens, IGROV-1, 48 h, read-out: TGI IGROV) of 1430 nM. For the same molecule, the GI50 ([8]; Homo sapiens, DU-145, 48 h) was 861 nM, the CC50 ([8]; Homo sapiens, DU-145, 48 h) was 6570 nM and the IC (TGI) ([8]; Homo sapiens, DU-145, 48 h, read-out: TGI DU145) was 2200 nM. The GI50 ([9]; Homo sapiens, 48 h) was 1610 nM, the CC50 ([9]; Homo sapiens, 48 h) was 12100 nM and the IC (TGI) ([9]; Homo sapiens, 48 h, read-out: TGI IGROV-ET) was 4410 nM. It also gave a GI50 ([10]; Homo sapiens, 48 h) of 939 nM, a CC50 ([10]; Homo sapiens, 48 h) of 7690 nM and an IC (TGI) ([10]; Homo sapiens, 48 h, read-out: TGI HELA-APL) of 2780 nM. For the same molecule, the GI50 ([11]; Homo sapiens, 48 h) was 904 nM, the CC50 ([11]; Homo sapiens, 48 h) was 13900 nM and the IC (TGI) ([11]; Homo sapiens, 48 h, read-out: TGI LOVO-DOX) was 3770 nM. For the same molecule, the GI50 ([12]; Homo sapiens, SK-BR-3, 48 h) was 555 nM, the CC50 ([12]; Homo sapiens, SK-BR-3, 48 h) was 8640 nM and the IC (TGI) ([12]; Homo sapiens, SK-BR-3, 48 h, read-out: TGI SK-BR3) was 1060 nM. For the same molecule, the GI50 ([13]; Homo sapiens, HeLa, 48 h) was 1500 nM, the CC50 ([13]; Homo sapiens, HeLa, 48 h) was 8110 nM and the IC (TGI) ([13]; Homo sapiens, HeLa, 48 h, read-out: TGI HELA) was 3480 nM. The GI50 ([14]; Homo sapiens, LNCaP, 48 h) was 323 nM, the CC50 ([14]; Homo sapiens, LNCaP, 48 h) was 2550 nM and the IC (TGI) ([14]; Homo sapiens, LNCaP, 48 h, read-out: TGI LNCAP) was 757 nM.
